# Experimental data from patent publication US9993423B2, “Microneedle deposition method” (COSMED PHARMACEUTICAL CO., LTD., priority 2011, dated 2018).
# Test system: diabetes model rats created by administration of streptozotocin
# Test: Blood glucose level measurement test after insulin administration
# Type: in vivo, rat
# Conditions: 0.5, 1 and 2 hours, fasted diabetes model rats, FIG. 2
# Description: Insulin was transdermally administered to rats using the manufactured microneedle array.
# In diabetes model rats created by administration of streptozotocin (Body weight: about 300 g), their abdomens were dehaired. After these rats were fasted for 14 hours or longer, the microneedle array was inserted to the dehaired skin and fixed to the skin by YU-KI BAN (NITTO MEDICAL CORPORATION). Blood was sampled 0.5, 1 and 2 hours after administration of the microneedle array, and the blood glucose levels were measured. For measurement of the blood glucose levels, Glucose CII-test kit (Wako Pure Chemical Industries, Ltd.) was used. The tests were conducted in four cases.
# Insulin was subcutaneously injected to rats.
# After the diabetes model rats were fasted for 14 hours or longer, 0.25 units of insulin were subcutaneously injected. Blood was sampled 0.5, 1 and 2 hours after administration of insulin, and the blood glucose levels were measured. For measurement of the blood glucose levels, Glucose CII-test kit was used like Example 1. […]. The tests were conducted in four cases.
# As a standard of the blood glucose level measurement test, a control (no insulin) was measured.
# After the diabetes model rats were fasted for 14 hours or longer, blood was sampled 0.5, 1 and 2 hours later, and the blood glucose levels were measured. […]
substance,measurement,setting,value
"insulin: Bovine insulin (NACALAI TESQUE), given on hyaluronic acid microneedle array tips (0.25 unit per array) or by subcutaneous injection","blood glucose level (relative value, time zero = 100)","microneedle array, 0.25 unit insulin, transdermal on dehaired abdomen",lowered
same,"blood glucose level (relative value, time zero = 100)","subcutaneous injection, 0.25 units of insulin",lowered
